Literature values, collected in patent US20070161636A1, “Method of analyzing physiological function of target substance” (priority 2003, published 2007).
Where two headings read alike, the source gives them in different places.

## O=C1OC2(c3ccccc31)c1cc(Br)c(O)c(Br)c1Oc1c2cc(Br)c(O)c1Br [eosin, tetrabromofluorescein]
In ethanol
  maximum absorption (max λ): 523 nm
In water
  maximum absorption (max λ): 517 nm
